Measured values published in US11873291B2, “Quinoline cGAS antagonist compounds” (ImmuneSensor Therapeutics, Inc., priority 2020, dated 2024).
pIC50: −log10 of the molar value. Where two headings read alike, the source gives them in different places.

Tests used:
[1] = target: T1, recombinant human cGAS (aa147-522) (Homo sapiens, UniProt Q8N884); assay: In vitro inhibition assay of cGAS activity (ATP consumption, KinaseGlo Max); format: biochemical
T1 construct: recombinant human cGAS (aa147-522); His6-SUMO (cleaved yes); made in house; host or cells: E. coli BL21/pLys
How it was run: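 IC50 came from plotting % ATP consumption against log compound concentration, with leftover ATP detected by KinaseGlo Max chemiluminescence. Reactions ran 20 min at 37 °C with 1.5 μg/mL human cGAS (aa147-522), 6.6 μM ATP, 0.1 mM GTP and 0.01 mg/mL DNA at pH 7.5.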

[2] = tested on: cGAS activity in Reporter THP1 cell line; assay: Cellular assay to measure cGAS activity: ISRE-Gaussia luciferase reporter THP1 cells transfected with ISD; format: cell-based; settings: Homo sapiens
How it was run: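 THP1 ISRE-Gaussia luciferase reporter cells (0.3×10^6/well) pre-incubated 5 min with compound serial dilutions, then lipofectamine-transfected with 2 μg/mL ISD (45 bp DNA) or mock. Secreted luciferase read 16 h later with 1 μM coelenterazine at pH 6.5; IC50 from fold increase over mock. Specificity counter-screen used 2 μg/mL poly(I:C) or Sendai virus 50 Unit/mL.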

[3] = Table 3, read-out: cGAS Inhibition Results IC50
[4] = THP-1, untitled table after Table 4 (continuation)
[5] = THP-1, Table 4, Gaussia luciferase
[6] = Table 2, read-out: cGAS Inhibition Results IC50

T1 sequence (Q8N884 147-522): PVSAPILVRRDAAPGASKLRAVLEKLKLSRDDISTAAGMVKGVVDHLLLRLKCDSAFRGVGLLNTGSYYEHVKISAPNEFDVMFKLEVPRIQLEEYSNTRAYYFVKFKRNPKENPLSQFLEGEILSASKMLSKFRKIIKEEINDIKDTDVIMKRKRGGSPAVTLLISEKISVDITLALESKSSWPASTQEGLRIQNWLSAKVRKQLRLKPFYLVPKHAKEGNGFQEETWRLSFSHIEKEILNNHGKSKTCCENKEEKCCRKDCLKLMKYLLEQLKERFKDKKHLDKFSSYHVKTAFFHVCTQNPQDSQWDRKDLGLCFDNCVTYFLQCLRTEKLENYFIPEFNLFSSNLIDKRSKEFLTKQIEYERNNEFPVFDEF

pIC50 [1, 3]	pIC50 [2, 4]	pIC50 [2, 5]	pIC50 [1, 6]	Structure (SMILES)
4.52 to 5.70		5.00 to 5.70		COC(=O)[C@@H]1[C@@H]2C[C@@H]2CN1c1cc(-n2ccnc2)c2ccc(Cl)c(Cl)c2n1 [I-577]
		< 5.00	> 5.70	O=C(O)[C@@H]1[C@H](O)CCN1c1cc(-n2ccnc2)c2ccc(Cl)c(Cl)c2n1 [I-429]
4.52 to 5.70		5.00 to 5.70		COC(=O)[C@H]1CCCN1C(=O)C[C@@H]1CCCN1c1cc(-n2ccnc2)c2ccc(Cl)c(Cl)c2n1 [I-532]
> 5.70		< 5.00		O=C(O)C(F)COC[C@@H]1CCCN1c1cc(-n2ccnc2)c2ccc(Cl)c(Cl)c2n1 (stereo partly drawn) [I-716, 3-(((S)-1-(7,8-dichloro-4-(1H-imidazol-1-yl)quinolin-2-yl)pyrrolidin-2-yl)methoxy)-2-fluoropropanoic acid]
> 5.70	< 5.00			O=C(O)[C@@H]1[C@H](CO)CCN1c1cc(-n2ccnc2)c2ccc(Cl)c(Cl)c2n1 (racemic) [I-782, 1-(7,8-dichloro-4-(1H-imidazol-1-yl)quinolin-2-yl)-3-(hydroxymethyl)pyrrolidine-2-carboxylic acid]
		5.00 to 5.70	> 5.70	O=C(O)[C@@H]1CCCN1c1cc(-n2ccnc2)c2ccc(Cl)c(Cl)c2n1 [I-428]
4.52 to 5.70		> 5.70		CC(C)OC(=O)[C@@H]1[C@@H](O)CCN1c1cc(-n2ccnc2)c2ccc(Cl)c(Cl)c2n1 [I-600]
4.52 to 5.70		> 5.70		COC(=O)CCOCC[C@@H]1CCCN1c1cc(-n2ccnc2)c2ccc(Cl)c(Cl)c2n1 [I-673]
> 5.70		5.00 to 5.70		C[C@H]1C[C@@H](C(=O)O)N(c2cc(-n3ccnc3)c3ccc(Cl)c(Cl)c3n2)C1 [I-477]
> 5.70		> 5.70		O=C(O)CCOC[C@@H]1CCN1c1cc(-n2ccnc2)c2ccc(Cl)c(Cl)c2n1 [I-688]
4.52 to 5.70		> 5.70		CCOC(=O)[C@@H]1[C@@H](O)CCN1c1cc(-n2ccnc2)c2ccc(Cl)c(Cl)c2n1 [I-599]
4.52 to 5.70	< 5.00			O=C(O)CCNC[C@@H]1CCCN1c1cc(-n2ccnc2)c2ccc(Cl)c(Cl)c2n1 [I-756, (5)-3-(((1-(7,8-dichloro-4-(1H-imidazol-1-yl)quinolin-2-yl)pyrrolidin-2-yl)methyl)amino)propanoic acid]
		5.00 to 5.70	> 5.70	OC[C@@H]1CCCN1c1cc(-n2ccnc2)c2ccc(Cl)c(Cl)c2n1 [I-139]
> 5.70		5.00 to 5.70		O=C(O)[C@@H]1CC2(CC2)CN1c1cc(-n2ccnc2)c2ccc(Cl)c(Cl)c2n1 [I-478]
> 5.70	5.00 to 5.70			O=C1C[C@@H]2[C@@H](CCN2c2cc(-n3ccnc3)c3ccc(Cl)c(Cl)c3n2)O1 [I-774, (3aR,6aR)-4-(7,8-dichloro-4-(1H-imidazol-1-yl)quinolin-2-yl)hexahydro-2H-furo[3,2-b]pyrrol-2-one]
4.52 to 5.70		> 5.70		COC(=O)CCC[C@@H]1CCCN1c1cc(-n2ccnc2)c2ccc(Cl)c(Cl)c2n1 [I-681]
> 5.70	> 5.70			O=C(O)CCOC[C@@H]1CCCCN1c1cc(-n2ccnc2)c2ccc(Cl)c(Cl)c2n1 [I-789]
> 5.70		> 5.70		O=C(O)c1ccn(C[C@@H]2CCCN2c2cc(-n3ccnc3)c3ccc(Cl)c(Cl)c3n2)c1 [I-732]
4.52 to 5.70		> 5.70		COC(=O)[C@@H]1C[C@H](C)CN1c1cc(-n2ccnc2)c2ccc(Cl)c(Cl)c2n1 [I-586]
4.52 to 5.70		5.00 to 5.70		Clc1ccc2c(-n3ccnc3)cc(N3CCCC3c3ncc[nH]3)nc2c1Cl (stereo not shown) [I-467]

Further lines, the molecule ahead of its results:

Structure (SMILES)	pIC50 [1, 3]	pIC50 [2, 4]	pIC50 [2, 5]	pIC50 [1, 6]
O=C(O)CCOCc1cccc(-c2cc(-n3ccnc3)c3ccc(Cl)c(Cl)c3n2)c1 [I-840, 3-((3-(7,8-dichloro-4-(1H-imidazol-1-yl)quinolin-2-yl)benzyl)oxy)propanoic acid]	> 5.70	> 5.70		
COC(=O)[C@@H]1[C@@H](O)CCN1c1cc(-c2cn[nH]c2)c2ccc(Cl)c(Cl)c2n1 [I-598]	4.52 to 5.70		> 5.70	
O=C(O)Cc1ccccc1CNc1cc(-n2ccnc2)c2ccc(Cl)c(Cl)c2n1 [I-888]	> 5.70	5.00 to 5.70		
C[C@@]1(COCCC(=O)O)CCCN1c1cc(-n2ccnc2)c2ccc(Cl)c(Cl)c2n1 [I-696]	> 5.70		> 5.70	
O=C(O)CCOC[C@@H]1CCCN1c1cc(-c2cn[nH]c2)c2ccc(Cl)c(Cl)c2n1 [I-670]	> 5.70		> 5.70	
O=C(O)CCOC[C@@H]1[C@H]2C[C@H]2CN1c1cc(-n2ccnc2)c2ccc(Cl)c(Cl)c2n1 [I-710]	> 5.70		5.00 to 5.70	
O=C(O)CCOC[C@@H]1CCCN(c2cc(-c3cn[nH]c3)c3ccc(Cl)c(Cl)c3n2)C1 [I-747]	> 5.70		> 5.70	
O=C(O)c1cccc(CNc2cc(-n3ccnc3)c3ccc(Cl)c(Cl)c3n2)c1 [I-887]	> 5.70	5.00 to 5.70		
CN(CCCOc1ccccc1C(=O)O)c1cc(-n2ccnc2)c2ccc(Cl)c(Cl)c2n1 [I-846]	> 5.70	> 5.70		
O=C(O)CCOC[C@@H]1CCN(c2cc(-n3ccnc3)c3ccc(Cl)c(Cl)c3n2)C1 [I-773]	> 5.70	> 5.70		
COC(=O)[C@@H]1[C@@H](O)CCN1c1cc(-n2ccnc2)c2ccc(Cl)c(Br)c2n1 [I-872]	4.52 to 5.70	> 5.70		
CN(Cc1cccc(CC(=O)O)c1)c1cc(-n2ccnc2)c2ccc(Cl)c(Cl)c2n1 [I-845]	> 5.70	> 5.70		
CC1(C)C[C@@H](COCCC(=O)O)N(c2cc(-n3ccnc3)c3ccc(Cl)c(Cl)c3n2)C1 [I-794]	> 5.70	> 5.70		
O=C(O)CCOC[C@@H]1CC(F)(F)CN1c1cc(-n2ccnc2)c2ccc(Cl)c(Cl)c2n1 [I-699]	> 5.70		> 5.70	
O=C(O)CCOCC1CC2CCC1N2c1cc(-n2ccnc2)c2ccc(Cl)c(Cl)c2n1 (stereo not shown) [I-807]	> 5.70	> 5.70		
O=C(O)CCOC[C@@H]1C[C@H](F)CN1c1cc(-n2ccnc2)c2ccc(Cl)c(Cl)c2n1 [I-705]	> 5.70		> 5.70	
O=C(O)CCOCc1cc(Cl)cc(-c2cc(-n3ccnc3)c3ccc(Cl)c(Cl)c3n2)c1 [I-879]	> 5.70	> 5.70		
NS(=O)(=O)CCNc1cc(-n2ccnc2)c2ccc(Cl)c(Cl)c2n1 [I-200]			> 5.70	> 5.70
O=C(O)CCCCCNc1cc(-c2cn[nH]c2)c2cc(Cl)cc(Cl)c2n1 [I-854]	> 5.70	< 5.00		
O=C(O)Cc1cc(F)cc(CNc2cc(-n3ccnc3)c3ccc(Cl)c(Cl)c3n2)c1 [I-891, 2-(3-(((7,8-dichloro-4-(1H-imidazol-1-yl)quinolin-2-yl)amino)methyl)-5-fluorophenyl)acetic acid]	> 5.70	> 5.70		
O=C(O)Cc1cccc(CNc2cc(-n3ccnc3)c3ccc(Cl)c(Cl)c3n2)c1 [I-844]	> 5.70	> 5.70		
O=C(O)CCOC1CCN(c2cc(-n3ccnc3)c3ccc(Cl)c(Cl)c3n2)CC1 [I-864]	> 5.70	< 5.00		
Cc1ccc(-c2cc(-n3ccnc3)c3ccc(Cl)c(Cl)c3n2)cc1COCCC(=O)O [I-877]	> 5.70	> 5.70		
CO[C@@H]1C[C@@H](COCCC(=O)O)N(c2cc(-n3ccnc3)c3ccc(Cl)c(Cl)c3n2)C1 [I-711]	> 5.70		> 5.70	
